According to ChEMBL document CHEMBL1770138, “Synthesis and SAR of pyrimidine-based, non-nucleotide P2Y14 receptor antagonists” (Bioorg Med Chem Lett, 2011):

Legend:
in vivo [1] = conditions: C57B6, mouse, iv, 5 mg/kg
in vivo [2] = conditions: C57B6, mouse, iv, 5 mg/kg; remark: listed apart in the source
[3] = Drug uptake in plasma of C57B6 mouse after 24 hrs; type: ADME; conditions: read-out: Drug uptake
in vivo [4] = conditions: C57B6, mouse, po, 50 mg/kg
in vivo [5] = conditions: C57B6, mouse
in vivo [6] = conditions: C57B6, mouse, po, 50 mg/kg; remark: listed apart in the source

`CCc1cccc(NC(=O)N2CCc3nc(-c4ccc5c(c4)OCO5)nc(-c4ccccc4C)c3C2)c1` showed a clearance (in vivo [1]) of 48 mL/min/kg, a Vd (in vivo [2]) of 19 L/kg and a concentration at 24 h [3] of 400 nM. For the same compound, the bioavailability (in vivo [4]) was 134%, the half-life (in vivo [5]) was 11 h and the Cmax (in vivo [6]) was 2400 nM.
